Source: PubChem BioAssay (NCI)
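Dose response: 5 concentrations. Exposure: 48 h. Format: 96-well plates. Endpoint: linear interpolation; highest concentration if not reached. At the GI50, growth is halved. TGI is the concentration that stops growth completely.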

What was measured:
Test in all cases: NCI-60 cell line screen, 48 h
786-0 renal = tested on: 786-0 renal
HOP-92 NSCLC = tested on: HOP-92 NSCLC
HS 578T breast = tested on: HS 578T breast
K-562 leukemia = tested on: K-562 leukemia
OVCAR-3 ovarian = tested on: OVCAR-3 ovarian
OVCAR-4 ovarian = tested on: OVCAR-4 ovarian
OVCAR-8 ovarian = tested on: OVCAR-8 ovarian
SF-268 CNS = tested on: SF-268 CNS
SK-MEL-5 melanoma = tested on: SK-MEL-5 melanoma
SW-620 colon = tested on: SW-620 colon

| Structure (SMILES) | TGI (786-0 renal) | TGI (HOP-92 NSCLC) | TGI (HS 578T breast) | TGI (K-562 leukemia) | TGI (OVCAR-3 ovarian) | TGI (OVCAR-4 ovarian) | TGI (OVCAR-8 ovarian) | TGI (SF-268 CNS) | TGI (SK-MEL-5 melanoma) | TGI (SW-620 colon) | GI50 (786-0 renal) | GI50 (HOP-92 NSCLC) | GI50 (HS 578T breast) | GI50 (K-562 leukemia) | GI50 (OVCAR-3 ovarian) | GI50 (OVCAR-4 ovarian) | GI50 (OVCAR-8 ovarian) | GI50 (SF-268 CNS) | GI50 (SK-MEL-5 melanoma) | GI50 (SW-620 colon) |
| --- | --- | --- | --- | --- | --- | --- | --- | --- | --- | --- | --- | --- | --- | --- | --- | --- | --- | --- | --- | --- |
| O=C(Nc1ccccc1)OC1OC(COC(=O)c2ccccc2)C(OC(=O)c2ccccc2)C1OS(=O)(=O)c1ccc([N+](=O)[O-])cc1 (centres undefined) | > 100 µM | > 100 µM | > 100 µM | > 100 µM | > 100 µM | > 100 µM | > 100 µM | > 100 µM | > 100 µM | > 100 µM |  |  |  |  |  |  |  |  |  |  |
| O=C(Nc1cc(Cl)ccc1O)c1cccc(Nc2ccnc(C(F)(F)F)c2)c1 | 19.3 µM | 10.9 µM | 41.2 µM | 12.4 µM | 10.4 µM | 17.4 µM | 32.1 µM | 22.8 µM | 3.83 µM | 18.5 µM | 3.56 µM | 2.27 µM | 8.27 µM | 0.713 µM | 2.73 µM | 2.32 µM | 3.77 µM | 7.35 µM | 1.3 µM | 4.32 µM |
| O=C(Nc1cc(F)c(F)cc1C(=O)O)c1ccc(-n2ccnc2)nn1 | > 100 µM | > 100 µM | > 100 µM | > 100 µM | > 100 µM | > 100 µM | > 100 µM | > 100 µM | > 100 µM | > 100 µM | > 100 µM | > 100 µM | > 100 µM | 80.5 µM | 42.4 µM | 65.6 µM | > 100 µM | > 100 µM | > 100 µM | > 100 µM |
| COc1cc2ncnc(Nc3ccc(Oc4ccnc(C)c4)c(C)c3)c2cc1NC(=O)CC1CCSS1 (centres undefined) | > 50 µM | 23.1 µM | 3.21 µM | 1.18 µM | 1.6 µM | 24.3 µM | > 50 µM | 2.17 µM | 1.99 µM | 2.71 µM | > 50 µM | 3.75 µM | 1.12 µM | 0.253 µM | 0.853 µM | 1.54 µM | 2.19 µM | 0.94 µM | 0.974 µM | 1.14 µM |
| COc1ccc(-c2cc(-c3ccc(Cl)cc3)nc(NCCCCNc3ccnc4cc(Cl)ccc34)n2)cc1 | 3.02 µM | 18.3 µM | 38.9 µM | 5.02 µM | 3.11 µM | 3.49 µM | 4.28 µM | 6.31 µM | 3.08 µM | 3.46 µM | 1.62 µM | 1.67 µM | 14.6 µM | 1.83 µM | 1.65 µM | 1.72 µM | 1.9 µM | 2.39 µM | 1.7 µM | 1.76 µM |
| COc1ccc(C(=O)c2cc3c(N)c(C(=O)Nc4cccc(Br)c4C)sc3nc2C)cc1 | > 100 µM | 1.67 µM | > 100 µM | > 100 µM | 1.05 µM | > 100 µM | > 100 µM | > 100 µM | 1.81 µM | > 100 µM | 0.0616 µM | < 0.0445 µM | 0.082 µM | 0.0375 µM | 0.0394 µM | 0.474 µM | 0.205 µM | 0.173 µM | 0.193 µM | 0.046 µM |
| CCCc1nc(Cl)c(Cl)c(Cl)n1 | > 31.6 µM | > 61.7 µM | 44.3 µM | > 45.9 µM | 18.7 µM | 33.4 µM | 51 µM | 33.4 µM | > 100 µM | > 52.2 µM |  |  |  |  |  |  |  |  |  |  |
| Clc1ccc2c(c1)N(C1CCCN(Cc3ccccc3)C1)c1ccccc1S2 (centres undefined) | > 100 µM | 74.2 µM | 6.07 µM | > 100 µM | 24.4 µM | > 100 µM | > 100 µM | > 100 µM | 25.3 µM | 32.5 µM | 4.44 µM | 4.68 µM | 2.12 µM | 3.19 µM | 3.27 µM | 18 µM | 6.36 µM | 3.8 µM | 5.71 µM | 2.98 µM |
| O=C(NCCOCCOCCOCCNC(=O)c1cc2c(o1)C(=O)c1ccccc1C2=O)NC12CC3CC(CC(C3)C1)C2 | 11 µM | 10.7 µM | 6.85 µM | 8.91 µM | 4.4 µM | 2.27 µM | 8.34 µM | 6.22 µM | 1.02 µM | 7.26 µM | 2.89 µM | 3.08 µM | 2.18 µM | 1.98 µM | 1.41 µM | 1.02 µM | 1.44 µM | 2.29 µM | 0.303 µM | 2.35 µM |
| O=C1C=C(OCC=C(C(F)(F)F)C(F)(F)F)c2ccccc2C1=O | 13.9 µM | 4.37 µM | 7.21 µM | 5.42 µM | 3.39 µM | 2.91 µM | 3.12 µM | 7.42 µM | 2.95 µM | 3.91 µM | 3.97 µM | 1.9 µM | 2.06 µM | 1.97 µM | 1.78 µM | 1.53 µM | 1.63 µM | 2.53 µM | 1.51 µM | 1.92 µM |
| COc1cc(-c2nc3ccccc3o2)cc(CN2CCCCC2)c1O | 89.8 µM | > 100 µM | 7.44 µM | > 100 µM | 39.7 µM | > 71.8 µM | 94.3 µM | > 100 µM | 2.3 µM | 8.13 µM | 20.3 µM | 27 µM | 2.37 µM | 8.18 µM | 2.75 µM | 9.48 µM | 11.4 µM | 5.12 µM | 1.09 µM | 1.92 µM |
| COc1ccc2c(O)c(/C=C3\N=Nc4ncccc43)oc2c1C[C@@H]1CCNC[C@H]1F | 1.59 µM | 9.21 µM | 5.78 µM | 1.79 µM | 2.74 µM | 3.45 µM | 1.6 µM | 1.39 µM | 8.35 µM | 1.12 µM | 0.362 µM | 4.7 µM | 1.58 µM | 0.442 µM | 0.485 µM | 1.41 µM | 0.277 µM | 0.294 µM | 0.869 µM | 0.34 µM |
| Cc1c2ccncc2c(C)c2c1sc1ccccc12 | 17.5 µM | 28.5 µM | 39.5 µM | 41.1 µM | 29.6 µM | 37.8 µM | 25.1 µM | 64.3 µM | 23.1 µM | 22.1 µM |  |  |  |  |  |  |  |  |  |  |
| CCC(C)C1=C(O)[N+]2([O-])Oc3ccc(C4=C(O)C(=O)C(c5ccc(O)cc5)=C(O)C4=O)cc3OC2(C(C)CC)C(=O)N1O (centres undefined) | > 100 µM | > 100 µM | > 100 µM | > 100 µM | 49.1 µM | > 100 µM | > 100 µM | > 100 µM | 27.3 µM | > 100 µM | 26.1 µM | 9.29 µM | 7.24 µM | 8.03 µM | 5.39 µM | > 100 µM | 6.34 µM | 5.83 µM | 6.82 µM | 25.4 µM |
| O=C(c1ccc([N+](=O)[O-])cc1)C(Br)C(Br)c1ccnc2ccccc12 (centres undefined) | 7.44 µM | 28.8 µM | > 27.2 µM | > 33.3 µM | 23.1 µM | 25.5 µM | 42.3 µM | 45.2 µM | 20 µM | 5.61 µM |  |  |  |  |  |  |  |  |  |  |
| C#C[C@@]1(O)[C@@H](CO)O[C@@H](n2cc(C(F)(F)F)c3c(N)ncnc32)[C@@H]1O | > 100 µM | 7.46 µM | 6.23 µM | 0.909 µM | 4.89 µM | > 100 µM | > 100 µM | > 22.9 µM | 4.38 µM | > 21.7 µM | 2.07 µM | 1.24 µM | 1.26 µM | 0.291 µM | 0.727 µM | 2.41 µM | 0.243 µM | 1.55 µM | 0.688 µM | 0.349 µM |
| CC(=O)/C(Br)=C/c1ccc(Br)o1 | 34.2 µM | 23.9 µM | 7.22 µM | > 36.5 µM | 14.5 µM | 22 µM | > 35.8 µM | 23.6 µM | 22.6 µM | 4.87 µM | 16.5 µM | 8.63 µM | 2.39 µM | 2.99 µM | 4.16 µM | 9.35 µM | 3.33 µM | 7.58 µM | 10.3 µM | 2.1 µM |
| C=C1C(=O)O[C@H]2[C@H]1CC/C(COC(=O)/C=C\C(=O)NCc1ccc(Cn3c(=O)sn(CCI)c3=O)cc1)=C\CC[C@@]1(C)O[C@@H]21 | 7.23 µM | 4.6 µM | 73.6 µM | > 100 µM | 3.24 µM | 17.3 µM | 8.76 µM | 23.6 µM | 25.7 µM | 3.75 µM | 2.6 µM | 2.05 µM | 14 µM | 2.45 µM | 1.76 µM | 3.62 µM | 2.78 µM | 10.1 µM | 12.8 µM | 1.92 µM |
| COc1ccc(S(=O)(=O)Nc2c(/C=C\c3cc(OC)c(OC)c(OC)c3)ccc(OC)c2O)cc1 | 28 µM | 39.7 µM | > 100 µM | > 100 µM | 1.21 µM | > 100 µM | > 100 µM | 91.6 µM | 0.201 µM | > 100 µM | 0.375 µM | 1.6 µM | 0.047 µM | 0.0286 µM | 0.0338 µM | 0.0763 µM | 0.0466 µM | 0.0838 µM | 0.0363 µM | 0.0408 µM |
| [N-]=[N+]=NCCCn1c2c(c3ccc([N+](=O)[O-])cc3c1=O)C(=O)c1cc(-c3ccccc3)ccc1-2 | > 100 µM | > 100 µM | > 100 µM | > 100 µM | > 100 µM | > 100 µM | > 100 µM | > 100 µM | > 100 µM | > 100 µM | > 100 µM | > 100 µM | 56.5 µM |  | > 100 µM | > 100 µM | > 100 µM | > 100 µM | 89 µM | > 100 µM |
| c1ccc(Oc2ccc(Nc3ncc(-c4ccccc4)o3)cc2)cc1 | > 25 µM | > 25 µM | > 25 µM | > 25 µM | > 25 µM | > 25 µM | > 25 µM | > 25 µM | > 25 µM | > 25 µM | > 25 µM | 23.9 µM | > 25 µM | > 25 µM | > 25 µM | > 25 µM | > 25 µM | > 25 µM | > 25 µM | > 25 µM |
| CCCCCCCCCCNCCSS(=O)(=O)O | 14.3 µM | 25.7 µM | 3.6 µM | 7.28 µM | 3.46 µM | 24.4 µM | 4.68 µM | 2.52 µM | 5.59 µM | 4.32 µM | 4.55 µM | 8.84 µM | 1.67 µM | 2.61 µM | 1.98 µM | 9.91 µM | 2.12 µM | 1.22 µM | 2.14 µM | 1.95 µM |
| COc1cc([N+](=O)[O-])c(S(=O)(=O)O)cc1-n1nc(C(=O)Nc2ccccc2)n[n+]1-c1cc(S(=O)(=O)[O-])c([N+](=O)[O-])cc1OC | > 100 µM | > 100 µM | > 100 µM | > 100 µM | > 100 µM | > 100 µM | > 100 µM | > 100 µM | > 100 µM | > 100 µM |  |  |  |  |  |  |  |  |  |  |
